# Results reported in patent US20110319379A1, “Substituted Indazole Amides And Their Use As Glucokinase Activators” (priority 2009, published 2011).
# Molecular target: T1, recombinant human glucokinase (Homo sapiens, UniProt P35557)
# T1 construct: Full-length glucokinase (beta cell isoform) was His-tagged at the N-terminus and purified by a Ni column followed by size exclusion chromatography as described above; His tag; made in house; host or cells: E. coli BL21(DE3), vector pBCGK
# T1 sequence (P35557 1-465): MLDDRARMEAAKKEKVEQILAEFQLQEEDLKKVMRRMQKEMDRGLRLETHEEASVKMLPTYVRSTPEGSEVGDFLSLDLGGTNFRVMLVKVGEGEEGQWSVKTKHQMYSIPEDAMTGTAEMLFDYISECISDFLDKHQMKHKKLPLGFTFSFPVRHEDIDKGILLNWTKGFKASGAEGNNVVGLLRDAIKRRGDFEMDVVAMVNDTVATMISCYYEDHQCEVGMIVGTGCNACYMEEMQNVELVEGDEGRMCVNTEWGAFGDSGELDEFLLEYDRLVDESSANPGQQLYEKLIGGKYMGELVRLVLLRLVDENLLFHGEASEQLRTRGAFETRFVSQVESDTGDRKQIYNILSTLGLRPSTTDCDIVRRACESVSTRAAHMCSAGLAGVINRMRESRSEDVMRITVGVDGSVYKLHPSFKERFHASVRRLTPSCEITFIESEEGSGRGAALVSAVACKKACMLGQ
# Assay: Assay 2: Evaluating Activator Potency in a Matrix Assay at Multiple Glucose Concentrations
# Format: biochemical
# Conditions: Assay 2 matrix assay; 16 glucose concentrations; intrinsic EC50 = concentration affording a 50% reduction in the enzyme's Km (for glucose); read-out: Glucokinase EC50
# Experimental: Representative compounds of this invention were evaluated in biochemical assays (Assay 1 or Assay 2) to characterize their glucokinase activation properties.
# The recombinant human glucokinase protein utilized in both assays was prepared and purified as described below.
# BL21(DE3) cells (Invitrogen Corporation, Carlsbad, Calif.) containing pBCGK (C or N H is) vector were grown at 37° C. (in 2XYT) until the OD600 was between 0.6-1.0. Expression was induced by addition of isopropylthiogalactoside to a final concentration of 0.1-0.2 mM to the cells which were then incubated overnight at 23° C. The next day, cells were harvested via centrifugation at 5000 rpm for 15 minutes at 4° C. The cell pellet was stored at −80° C. for future purification.
# Beta Cell Glucokinase His-Taq Purification Conditions: A Ni-NTA (Quigan, Germantown, Md.) column (15-50 mL) was used for separation. Two buffers were prepared, 1) a lysis/nickel equilibration and wash buffer and 2) a nickel elution buffer. The lysis/equilibration/wash buffer was prepared as such: 25 mM HEPES buffer at pH 7.5, 250 mM NaCl, 20 mM imidazole, and 14 mM β-mercaptoethanol as final concentrations. The elution buffer was prepared as such: 25 mM HEPES at pH 7.5, 250 mM NaCl, 400 mM imidazole, and 14 mM β-mercaptoethanol as final concentrations. The buffers were each filtered with a 0.22 μm filter prior to use. The cell pellet (1 L culture) was resuspended in 300 mL of the lysis/equilibration buffer. The cells were then lysed (3 times) with a Microfluidics Model 110Y microfluidizer (Microfluidics Corporation, Newton, Mass.). The slurry was centrifuged with a Beckman Coulter Model LE-80K ultracentrifuge (Beckman Coulter, Fullerton, Calif.) at 40,000 rpm for 45 minutes at 4° C. The supernatant was transferred to a chilled flask. A volume of 20 μl was saved for gel analysis. A Pharmacia AKTA (GMI, Inc., Ramsey, Minn.) purification system was used for separation. The prime lines were purged with lysis/equilibration buffer. The Ni-NTA column was equilibrated with 200 mL of the lysis/equilibration buffer at a flow rate of 5 mL/minute. The supernantant was loaded over the column at 4 mL/minute and the flow-through was collected in a flask. The unbound proteins were washed with lysis/equilibration buffer at a flow rate of 5 mL/minute until the ultraviolet reaches baseline. The protein was then eluted from the column with the imidazole elution buffer via imidazole gradient 20 mM to 400 mM over 320 mL. The column was then stripped of any additional protein with 80 mL of the elution buffer. The elution fractions were each 8 mL, for a total yield of 50 samples. Fractions were analyzed by sodium dodecyl sulfate polyacrylamide (SDS-PAGE) and the fractions containing protein of interest were pooled and concentrated to 10 mL using ultrafiltration cell with a 10,000 molecular weight cut-off (MWCO) Millipore membrane (Sigma-Aldrich, St. Louis, Mo.) under nitrogen gas (60 psi). Protein was further purified by size exclusion chromatography (SEC) using a […] (320 mL) (Amersham Pharmacia, Uppsala, Sweden). SEC was equilibrated with 450 mL sizing buffer containing 25 mM HEPES pH 7.0, 50 mM NaCl, and 5 mM dithiothreitol. Concentrated protein was then loaded over SEC and elution with 400 mL sizing buffer was performed overnight at 0.5 mL/minute. The elution fractions were 5 mL each. The fractions were analyzed by SDS-PAGE and protein containing fractions were pooled. Concentration was measured using Bradford Assay/BSA Standard. Purified protein was stored in small aliquots at −80° C.
# Assay 2: Evaluating Activator Potency in a Matrix Assay at Multiple Glucose Concentrations
# Utilizing an adaptation of this method, representative compounds of the current invention were evaluated at 22 different concentrations and 16 different glucose concentrations in a coupled enzyme assay system that detects glucokinase activity via depletion of β-NADH.
row,EC50 [nM],SMILES
1,195,"CCn1cc2c(Oc3cnc(C(=O)N(C)C)c(F)c3)cc(C(=O)Nc3cnccn3)cc2n1 [Example 1BB, 4-(6-(dimethylcarbamoyl)-5-fluoropyridin-3-yloxy)-2-ethyl-N-(pyrazin-2-yl)-2H-indazole-6-carboxamide]"
2,368,"Cc1cnc(NC(=O)c2cc(Oc3cnc(C(=O)N4CCC4)c(F)c3)c3cn(C)nc3c2)cn1 [Example 1BC, 4-(6-(azetidine-1-carbonyl)-5-fluoropyridin-3-yloxy)-2-methyl-N-(5-methylpyrazin-2-yl)-2H-indazole-6-carboxamide]"
3,383,"CCn1cc2c(Oc3cnc(C(=O)N(C)C)nc3)cc(C(=O)Nc3ccc(C)cn3)cc2n1 [Example 1BD, 4-(2-(dimethylcarbamoyl)pyrimidin-5-yloxy)-2-ethyl-N-(5-methylpyridin-2-yl)-2H-indazole-6-carboxamide]"
4,456,"COc1cnc(NC(=O)c2cc(Oc3cnc(C(=O)N(C)C)c(F)c3)c3cn(C)nc3c2)cn1 [Example 1BE, 4-(6-(dimethylcarbamoyl)-5-fluoropyridin-3-yloxy)-N-(5-methoxypyrazin-2-yl)-2-methyl-2H-indazole-6-carboxamide]"
5,203,"CCOc1cnc(NC(=O)c2cc(Oc3ccc(S(C)(=O)=O)cc3)c3cn(CC)nc3c2)cn1 [Example 1BG, N-(5-ethoxypyrazin-2-yl)-2-ethyl-4-[4-(methylsulfonyl)phenoxy]-2H-indazole-6-carboxamide]"
6,536,"CCc1cnc(NC(=O)c2cc(Oc3ccc(S(C)(=O)=O)cc3)c3cn(CC)nc3c2)cn1 [Example 1BH, 2-ethyl-N-(5-ethylpyrazin-2-yl)-4-[4-(methylsulfonyl)phenoxy]-2H-indazole-6-carboxamide]"
7,49900,"CCOc1cnc(NC(=O)c2cc(Oc3ccc(S(N)(=O)=O)cc3)c3cn(CC)nc3c2)cn1 [Example 1BI, 4-[4-(aminosulfonyl)phenoxy]-N-(5-ethoxypyrazin-2-yl)-2-ethyl-2H-indazole-6-carboxamide]"
8,1010,"CN(C)S(=O)(=O)c1ccc(Oc2cc(C(=O)Nc3ccn(C)n3)cc3nn(C)cc23)cc1 [Example 1BK, 4-{4-[(dimethylamino)sulfonyl]phenoxy}-2-methyl-N-(1-methyl-1H-pyrazol-3-yl)-2H-indazole-6-carboxamide]"
9,1800,"CNS(=O)(=O)c1ccc(Oc2cc(C(=O)Nc3ccn(C)n3)cc3nn(C)cc23)cc1 [Example 1BL, 2-methyl-4-{4-[(methylamino)sulfonyl]phenoxy}-N-(1-methyl-1H-pyrazol-3-yl)-2H-indazole-6-carboxamide]"
10,1900,"CCn1ccc(NC(=O)c2cc(Oc3ccc(S(C)(=O)=O)cc3)c3cn(CC)nc3c2)n1 [Example 1BM, 2-ethyl-N-(1-ethyl-1H-pyrazol-3-yl)-4-[4-(methylsulfonyl)phenoxy]-2H-indazole-6-carboxamide]"
11,684,"CNS(=O)(=O)c1ccc(Oc2cc(C(=O)Nc3cnc(OC)cn3)cc3nn(C)cc23)cc1 [Example 1BN, N-(5-methoxypyrazin-2-yl)-2-methyl-4-{4-[(methylamino)sulfonyl]phenoxy}-2H-indazole-6-carboxamide]"
12,250,"Cn1ccc(NC(=O)c2cc(Oc3cnc(C(=O)N4CCCC4)cn3)c3cn(C)nc3c2)n1 [Example 1BO, 2-methyl-N-(1-methyl-1H-pyrazol-3-yl)-4-(5-(pyrrolidine-1-carbonyl)pyrazin-2-yloxy)-2H-indazole-6-carboxamide]"
13,290,"CCn1cc2c(Oc3cnc(C(=O)N4CCCC4)cn3)cc(C(=O)Nc3cnc(C)cn3)cc2n1 [Example 1BP, 2-ethyl-N-(5-methylpyrazin-2-yl)-4-(5-(pyrrolidine-1-carbonyl)pyrazin-2-yloxy)-2H-indazole-6-carboxamide]"
14,699,"CCn1cc2c(Oc3cnc(C(=O)N4CCC4)cn3)cc(C(=O)Nc3ccn(C)n3)cc2n1 [Example 1BQ, 4-(5-(azetidine-1-carbonyl)pyrazin-2-yloxy)-2-ethyl-N-(1-methyl-1H-pyrazol-3-yl)-2H-indazole-6-carboxamide]"
15,790,"CCn1cc2c(Oc3cnc(C(=O)N4CCC4)cn3)cc(C(=O)Nc3cnc(C)cn3)cc2n1 [Example 1BR, 4-(5-(azetidine-1-carbonyl)pyrazin-2-yloxy)-2-ethyl-N-(5-methylpyrazin-2-yl)-2H-indazole-6-carboxamide]"
16,798,"Cn1ccc(NC(=O)c2cc(Oc3cnc(C(=O)N4CCC4)cn3)c3cn(C)nc3c2)n1 [Example 1BS, 4-(5-(azetidine-1-carbonyl)pyrazin-2-yloxy)-2-methyl-N-(1-methyl-1H-pyrazol-3-yl)-2H-indazole-6-carboxamide]"
17,979,"CC(C)n1cc2c(Oc3cnc(C(=O)N4CCC4)cn3)cc(C(=O)Nc3ccn(C)n3)cc2n1 [Example 1BT, 4-(5-(azetidine-1-carbonyl)pyrazin-2-yloxy)-2-isopropyl-N-(1-methyl-1H-pyrazol-3-yl)-2H-indazole-6-carboxamide]"
18,1050,"CCn1cc2c(Oc3cnc(C(=O)N(C)C)cn3)cc(C(=O)Nc3ccn(C)n3)cc2n1 [Example 1BU, 4-(5-(dimethylcarbamoyl)pyrazin-2-yloxy)-2-ethyl-N-(1-methyl-1H-pyrazol-3-yl)-2H-indazole-6-carboxamide]"
19,1590,"CC(C)n1cc2c(Oc3cnc(C(=O)N(C)C)cn3)cc(C(=O)Nc3ccn(C)n3)cc2n1 [Example 1BV, 4-(5-(dimethylcarbamoyl)pyrazin-2-yloxy)-2-isopropyl-N-(1-methyl-1H-pyrazol-3-yl)-2H-indazole-6-carboxamide]"
20,4640,"Cn1cc2c(Oc3cnc(C(=O)N4CCCC4)cn3)cc(C(=O)Nc3cnn(C)n3)cc2n1 [Example 1BW, 2-methyl-N-(2-methyl-2H-1,2,3-triazol-4-yl)-4-(5-(pyrrolidine-1-carbonyl)pyrazin-2-yloxy)-2H-indazole-6-carboxamide]"

# Same assay, conditions: Glucokinase EC50, Assay 2 matrix assay; 16 glucose concentrations; intrinsic EC50 = concentration affording a 50% reduction in the enzyme's Km (for glucose)
row,EC50 [nM],SMILES
1,108,"CCn1cc2c(Oc3cnc(C(=O)N4CCC4)c(F)c3)cc(C(=O)Nc3cnc(C)cn3)cc2n1 [Example 1AZ, 4-(6-(azetidine-1-carbonyl)-5-fluoropyridin-3-yloxy)-2-ethyl-N-(5-methylpyrazin-2-yl)-2H-indazole-6-carboxamide]"
2,191,"CCn1cc2c(Oc3cnc(C(=O)N4CCC4)c(F)c3)cc(C(=O)Nc3ccn(C)n3)cc2n1 [Example 1BA, 4-(6-(azetidine-1-carbonyl)-5-fluoropyridin-3-yloxy)-2-ethyl-N-(1-methyl-1H-pyrazol-3-yl)-2H-indazole-6-carboxamide]"
